According to article PMC7767178 (International Journal of Molecular Sciences, 2020):
Values after ≈ are worked out from the molar mass of the structure shown. Where two headings read alike, the source gives them in different places.

Tests used:
[1] = system: A. veronii ACCC61732 biofilm; format: cell-based; conditions: 16× MIC, 24 h, crystal violet
Procedure: Mid-log phase A. veronii ACCC61732 cells (1 × 10^8 CFU/mL, 180 µL) were added into the 96-well plates. […] Effects of peptides on biofilms formation was evaluated by the crystal violet staining as previously described. The untreated bacteria were used as the negative control (A) and fresh TSB medium was used as the blank control (A0). The inhibition effect of peptides on early biofilms was determined by the following equation: Biofilms (%) = [(Apeptides − A0)/(A − A0)] × 100.

[2] = system: trypsin
[3] = system: A. veronii ACCC61732; conditions: 3 h, MIC against A. veronii ACCC61732; for MIC after physiological salt 50 mM: NaCl 50 mM; for MIC after physiological salt 100 mM: NaCl 100 mM
Procedure: Similarly, salt stability of peptides was determined after a 3 h-incubation in different NaCl solutions (50, 100, 200, 300, 400, and 500 mM). […] The activity of peptides against A. veronii ACCC61732 was determined as described above. The untreated peptides were used as the positive control and buffers alone were used as the negative control. All assays were conducted in triplicate.

[4] = system: A. veronii ACCC61732; test: pH stability, MIC read-out; format: physicochemical; conditions: MIC against A. veronii ACCC61732; for MIC after treatment at pH 10: glycine-NaOH buffer pH 10.0, 3 h; for MIC after treatment at pH 6: sodium phosphate buffer pH 6.0, 3 h; for MIC after treatment at pH 8: tris-HCl buffer pH 8.0, 3 h
Procedure: To evaluate pH stability, peptides were dissolved in glycine-HCl buffer (pH 2.0), sodium acetate buffer (pH 4.0), sodium phosphate buffer (pH 6.0), tris-HCl buffer (pH 8.0), or glycine-NaOH buffer (pH 10.0) and treated for 3 h. The MIC values of peptides against A. veronii ACCC61732 were measured as described above.

[5] = system: Salmonella; conditions: range over the strains of Table 2
[6] = system: RAW 264.7 cells; test: Cytotoxicity, MTT; format: cell-based; conditions: 24 h
Procedure: To determine the cytotoxicity of peptides, RAW 264.7 cells (2.5 × 10^4 cells/well) were seeded into 96-well plates and incubated for 24 h. […] The cells were dyed with 3-(4,5-dimethyl-2-thiazolyl)-2,5-diphenyl-2-H-tetrazolium bromide (MTT) (5 mg/mL) for 4 h, incubated with dimethyl sulfoxide (DMSO), and measured at 570 nm. PBS was used as controls. The cell survival rate was calculated by the equation: Survival rate (%) = (Abspeptide/AbsPBS) × 100 [25].

[7] = system: Pseudomonas aeruginosa and Gram-positive bacteria such as Staphylococcus aureus and S. hyicus; test: MIC, range over strains; format: cell-based; conditions: range over the strains of Table 2
Excerpt: All experiments were repeated three times.

[8] = system: pepsin; conditions: pH 2
[9] = 60 min, 200 μg/mL peptide, 37 °C, inhibition zone against A. veronii ACCC61732
Procedure: Briefly, a final concentration of 200 μg/mL peptide was incubated in SGF and SIF at 37 °C. At different time intervals, an aliquot of 20 μL mixture was taken and the activity of peptides was tested against A. veronii ACCC61732 by the inhibition zone assay. […] in PBS was used as the positive control; SGF and SIF were used as negative controls.

[10] = system: A. veronii ACCC61732; test: SEM morphology; format: cell-based; conditions: 4× MIC, 2 h
Procedure: MDR A. veronii ACCC61732 cells were cultured in MHB at 37 °C (250 rpm) until the mid-log phase of growth, harvested by centrifugation, and diluted with 0.01 M PBS (pH 7.4) to 0.5–5 × 10^8 CFU/mL. […] For SEM, the samples were harvested (5000× g, 5 min) and fixed with 2.5% glutaraldehyde at 4 °C overnight. The cells were dehydrated for 10 min in a graded ethanol series (50%, 70%, 90%, and 100%) and transferred to a mixture of 100% ethanol, tertiary butanol, and absolute tertiary butanol (v:v = 1:1) for 15 min. Finally, the specimens were dehydrated in a critical point dryer with liquid CO2, coated with gold–palladium, and observed using a QUANTA200 (FEI, Philips, Amsterdam, Netherlands).

[11] = system: Pseudomonas aeruginosa CICC21630
Procedure: (§1) Briefly, the tested strains including Gram-negative bacteria, Gram-positive bacteria, and fungi were cultured to the logarithmic growth phase, diluted to 10^5 CFU/mL, and added into 96-well plates (90 μL/well). Two-fold serial dilutions of peptides or antibiotics dissolved in PBS were added to each well (10 μL/well). […] All experiments were repeated three times.

[12] = system: S. hyicus NCTC10350
Procedure: as §1

[13] = system: A. veronii CL0901
Procedure: as §1

[14] = system: S. aureus ATCC25923
Procedure: as §1

[15] = system: A. veronii ACCC61732; format: physicochemical; conditions: MIC against A. veronii ACCC61732; for MIC after treatment at 4 °C: 1 h at 4 °C; for MIC after treatment at 20 °C: 1 h at 20 °C; for MIC after treatment at 40 °C: 1 h at 40 °C; for MIC after treatment at 60 °C: 1 h at 60 °C; for MIC after treatment at 80 °C: 1 h at 80 °C
Procedure: The thermal stability of peptides was determined after treatment for 1 h at different temperatures (4, 20, 40, 60, 80, and 100 °C). The relative antibacterial activity of peptides against A. veronii ACCC61732 was determined by the MIC assay.

[16] = 37 °C
[17] = target: proteinase K (Parengyodontium album, UniProt P06873); conditions: proteinase K 40 mAU/mg, pH 7.0, peptide:enzyme 10:1 (w/w); MIC against A. veronii ACCC61732; triplicate
Sequence of proteinase K (P06873 106-384): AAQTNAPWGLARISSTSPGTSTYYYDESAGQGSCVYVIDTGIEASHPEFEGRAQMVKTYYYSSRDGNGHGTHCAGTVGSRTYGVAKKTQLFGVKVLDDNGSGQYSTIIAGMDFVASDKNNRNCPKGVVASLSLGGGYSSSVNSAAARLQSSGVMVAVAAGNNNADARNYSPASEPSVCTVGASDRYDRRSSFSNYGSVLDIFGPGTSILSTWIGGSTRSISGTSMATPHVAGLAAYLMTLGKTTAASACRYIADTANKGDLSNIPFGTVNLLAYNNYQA

[18] = Pseudomonas aeruginosa CICC21630, broth dilution, 37 °C, 16–18 h, three experiments
[19] = S. hyicus NCTC10350, broth dilution, 37 °C, 16–18 h, three experiments
[20] = A. veronii CL0901, broth dilution, 37 °C, 16–18 h, three experiments
[21] = S. aureus ATCC25923, broth dilution, 37 °C, 16–18 h, three experiments

SMILES | MIC after physiological salt 50 mM [3] | MIC after physiological salt 100 mM [3] | MIC after treatment at pH 10 [4] | MIC after treatment at pH 6 [4] | MIC after treatment at pH 8 [4] | MIC ([11]; CICC21630) | MIC [11, 18] | MIC ([12]; NCTC10350) | MIC [12, 19] | MIC [13] | MIC [13, 20] | MIC ([14]; ATCC25923) | MIC [14, 21] | MIC after treatment at 4 °C [15] | MIC after treatment at 20 °C [15] | MIC after treatment at 40 °C [15] | MIC after treatment at 60 °C [15] | MIC after treatment at 80 °C [15] | also measured
O=C(O)c1cn(C2CC2)c2cc(N3CCNCC3)c(F)cc2c1=O [CIP, ciprofloxacin, reference compound] | – | – | – | – | – | – | – | – | – | – | – | – | – | – | – | – | – | – | inhibition of early biofilm [1]: 70.75%
CC(C)[C@H]1NC(=O)CNC(=O)[C@@H](CC(N)=O)NC(=O)[C@@H](CCCNC(=N)N)NC(=O)[C@@H](Cc2ccc(O)cc2)NC(=O)[C@@H](C(C)C)NC(=O)[C@H](NC(=O)[C@H](NC(=O)[C@@H](CC(N)=O)NC(=O)[C@@H](Cc2c[nH]c3ccccc23)NC(=O)[C@@H](C)NC(=O)[C@@H](Cc2ccccc2)NC(=O)CN)C(C)C)CSSC[C@H](C(=O)N[C@H](Cc2c[nH]cn2)C(=O)N[C@H](CCCNC(=N)N)C(=O)N[C@H](CCCNC(=N)N)C(=O)N[C@H](C)C(=O)N[C@H](CC(N)=O)C(N)=O)NC(=O)[C@@H](C(C)C)NC(=O)[C@@H](CCCNC(=N)N)NC1=O [DN6NH2] | 4 μg/mL | 4 μg/mL | 4 μg/mL | 4 μg/mL | 4 μg/mL | 3.23 µM | 8 µg/mL | 3.23 µM | 8 µg/mL | 12.93 µM | 32 µg/mL | 3.23 µM | 8 µg/mL | 4 µg/mL (≈ 1.62 µM) | 4 µg/mL (≈ 1.62 µM) | 4 µg/mL (≈ 1.62 µM) | 4 µg/mL (≈ 1.62 µM) | 4 µg/mL (≈ 1.62 µM) | structure after trypsin treatment, MS analysis [2]: not affected by trypsin; MIC after physiological salt 200 mM ([3]; NaCl 200 mM): 4 μg/mL; MIC after physiological salt 300 mM ([3]; NaCl 300 mM): 4 μg/mL; MIC after physiological salt 400 mM ([3]; NaCl 400 mM): 4 μg/mL; MIC after physiological salt 500 mM ([3]; NaCl 500 mM): 4 μg/mL; MIC values against Salmonella [5]: 0.81 to 6.46 µM; cell survival rate at low concentrations [6]: over 100%; MICs against Pseudomonas aeruginosa and Gram-positive bacteria such as S. aureus and S. hyicus [7]: 1.62 to 6.46 µM; MIC after pepsin treatment [8]: retained the antibacterial activity; antibacterial activity after treatment in SGF [9]: higher antibacterial activity than N6NH2 and other analogs; cells producing filamentous substances [10]: over 50%; activity retained in SIF ([16]; 200 μg/mL peptide, inhibition zone against A. veronii ACCC61732): 100%; state after incubation in SIF ([16]; 1 h): remained intact
CC(C)[C@@H]1NC(=O)CNC(=O)[C@H](CC(N)=O)NC(=O)[C@H](CCCNC(=N)N)NC(=O)[C@H](Cc2ccc(O)cc2)NC(=O)[C@H](C(C)C)NC(=O)[C@@H](NC(=O)[C@@H](NC(=O)[C@H](CC(N)=O)NC(=O)[C@H](Cc2c[nH]c3ccccc23)NC(=O)[C@H](C)NC(=O)[C@H](Cc2ccccc2)NC(=O)CN)C(C)C)CSSC[C@@H](C(=O)N[C@@H](Cc2cnc[nH]2)C(=O)N[C@@H](CCCNC(=N)N)C(=O)N[C@@H](CCCNC(=N)N)C(=O)N[C@@H](C)C(=O)N[C@@H](CC(N)=O)C(N)=O)NC(=O)[C@H](C(C)C)NC(=O)[C@H](CCCNC(=N)N)NC1=O [N6NH2] | 4 μg/mL | 4 μg/mL | 4 μg/mL | 4 μg/mL | 4 μg/mL | 25.8 µM | 64 µg/mL | 12.9 µM | 32 µg/mL | 6.46 µM | 16 µg/mL | 12.9 µM | 32 µg/mL | 4 µg/mL (≈ 1.62 µM) | 4 µg/mL (≈ 1.62 µM) | 4 µg/mL (≈ 1.62 µM) | 4 µg/mL (≈ 1.62 µM) | 4 µg/mL (≈ 1.62 µM) | MIC after treatment at pH 2 ([4]; glycine-HCl buffer pH 2.0, 3 h): 4 μg/mL; MIC after treatment at pH 4 ([4]; sodium acetate buffer pH 4.0, 3 h): 4 μg/mL; MIC after proteinase K treatment [17]: > 128 µg/mL
